The values below come from US20180015072A1, “Tryptophan is a pro-drug for infectious diseases and cancers” (priority 2016, published 2018).

For series [1], the system named is respiratory syncytial viruses. Format: cell-based.
The test system of another series is chikungunya viruses. Format: cell-based.
Series [2] deals with Venezuelan equine encephalitis viruses. Format: cell-based.
The subject of a further series is rift valley fever virus. Format: cell-based.
Series [3] has as its system nun small cell lung cancer mice model. As to the kind of experiment: nun small cell lung cancer mice model. Format: in vivo. As to conditions: 80 mg/kg/day, China Tongi medical university.
The test system of a further series is dengue viruses. In kind it is cell-based.
The next series relates to hepatitis C virus. Format: cell-based.
The test system of another series is poliovirus. Format: cell-based.
The subject of another series is influenza A H1N1 viruses. In kind it is cell-based.
Another series concerns tacaribe virus. In kind it is cell-based.
A further series relates to human cytomegalovirus. Format: cell-based.
For a further series, the system named is Herpes simplex virus 1. Format: cell-based.
Another series deals with MERS coronavirus. In kind it is cell-based.
Series [4] has as its system hand foot mouth disease mice model. The series is described as follows: hand foot mouth disease mice model. In kind it is in vivo. To be noted: 320 mg/kg/day, China food and drug inspection Ins.
Another series relates to vaccinia virus. Format: cell-based.
In series [5] the test system is pancreatic cancer Mia PaCa2 cell. Format: cell-based.
A further series concerns hepatitis B. Format: cell-based.
The next series concerns yellow fever virus. In kind it is cell-based.
Series [6] concerns human primary white cells.

With `OC[C@H]1O[C@@H](Oc2c[nH]c3ccccc23)[C@H](O)[C@@H](O)[C@@H]1O` [Indican], the “inhibition of respiratory syncytial viruses” value in series [1] is “inhibits”. For the same compound, in the series with chikungunya viruses, the “inhibition of chikungunya viruses” value is “inhibits”. The “inhibition of Venezuelan equine encephalitis viruses” value in [2] was “inhibits”. Moreover, in the series with rift valley fever virus, the “inhibition of rift valley fever virus” value is given as “inhibit”. The “prevention and early stage treatment function in lung cancer mice model” value in [3] is “significant prevention and early stage treatment function”. In the series with dengue viruses, the “inhibition of dengue viruses” value is listed as “inhibits”. In addition, the “inhibition of hepatitis C virus” value in the series with hepatitis C virus is “inhibits”. Also, the inhibition of poliovirus result in the series on poliovirus was “inhibit”. The “inhibition of influenza A H1N1 viruses” value in the series with influenza A H1N1 viruses is listed as “inhibits”. Further, the “inhibition of tacaribe virus” value with tacaribe virus is on record as “inhibit”. Further, the “inhibition of human cytomegalovirus” value in the series with human cytomegalovirus is recorded as “inhibit”. The “inhibition of Herpes simplex virus 1” value in the series with Herpes simplex virus 1 was “inhibit”. For the same compound, the “inhibition of MERS coronavirus” value with MERS coronavirus is recorded as “inhibits”. In addition, the “function in hand foot mouth disease mice model” value in series [4] is listed as “significant function”. Besides, the “inhibition of vaccinia virus” value in the series on vaccinia virus is “inhibit”. Besides, the “inhibition of Mia PaCa2 cell growth” value in series [5] is recorded as “inhibit”. Further, the “function against hepatitis B” value in the series on hepatitis B is on record as “does not show function”. In the series on yellow fever virus, the “inhibition of yellow fever virus” value is listed as “inhibits”.

For the compound `N[C@@H](Cc1c[nH]c2ccccc12)C(=O)O` [Tryptophan], the “inhibition of rift valley fever virus” value with rift valley fever virus is “inhibit”. Further, the “prevention and early stage treatment function in lung cancer mice model” value in series [3] is “significant prevention and early stage treatment function”. The inhibition of poliovirus entry with poliovirus is given as “inhibit”. In addition, the “inhibition of tacaribe virus” value in the series on tacaribe virus is given as “inhibit”. In addition, the “safety for human primary white cells” value in [6] is on record as “safe”. For the same compound, the “inhibition of human cytomegalovirus” value with human cytomegalovirus is listed as “inhibit”. In addition, the “inhibition of Herpes simplex virus 1” value in the series with Herpes simplex virus 1 was “inhibit”. Moreover, the “function in hand foot mouth disease mice model” value in series [4] is given as “significant function”. For the same compound, in the series with vaccinia virus, the “inhibition of vaccinia virus” value is reported as “inhibit”. For the same compound, the “inhibition of Mia PaCa2 cell growth” value in series [5] is given as “inhibit”.
